The record followed here is patent US20250059172A1, “INDAZOLE COMPOUND AND PHARMACEUTICAL” (NIPPON SHINYAKU CO., LTD., priority 2021, published 2025).

The IC50 is the concentration needed to halve the response being measured.

Test [1] relates to human A549 cells. In words: Inhibition test of PGE2 production using human A549 cells. In kind it is cell-based. The settings on record: IL-1β stimulated A549 cells, 24 h, PGE2 by HTRF, read-out: A549 cell inhibition of PGE2 production IC50. The protocol: 100 μL of RPMI medium (Sigma) comprising 10% FBS and human A549 cells was seeded in a 96-well plate to […] cells per well, and incubated overnight. The medium was then removed and washed with phosphate-buffered saline, and added to a DMSO solution of the test compound or RPMI medium comprising 3% FBS with DMSO to a final concentration of 0.1% DMSO. After incubation for 60 minutes, IL-1P (5 ng/well, BioLegend) was added to the solution. After incubation at 37° C. for 24 h, PGE2 in the medium was quantified using the HTRF kit (Cisbio International) and PGF2a was also quantified using the EIA kit (Cayman chemical). Solutions without the test compound were used as positive controls, and solutions without the test compound and IL-1β were used as negative controls. 100% activity was defined as production of PGE2 and PGF2a in the positive control minus those in the negative control. IC50 values were then determined using standard methods.
(TR-FRET usually uses a lanthanide donor and a delayed reading to cut background.)

In test [2] the target is human mPGES-1 (Homo sapiens (Human), UniProt O14684). In words: mPGES-1 inhibitory activity test. It counts as biochemical. The settings on record: microsomes of CHO-K1 cells expressing human mPGES-1, PGH2 1 μM, PGE2 by HTRF; read-out: mPGES-1 inhibition (IC50 nM). The protocol: mPGES-1 microsomal specimens were prepared by transiently transfecting CHO-K1 cells (DS Pharma Biomedical Co. Ltd) with a plasmid encoding human mPGES-1 cDNA using FuGENE 6 Transfection Reagent (Promega). The prepared mPGES-1 microsome specimens were diluted in potassium phosphate buffer of pH 7.4 comprising 2.5 mM reduced glutathione (Sigma-Aldrich), DMSO solution of a test compound or DMSO was added to a final concentration of 1% of DMSO, and then incubated at 4° C. for 20 minutes. The enzymatic reaction was then initiated by adding a solution of PGH2 (Cayman chemical) substrate of a final concentration 1 μM and incubated at 4° C. for 60 seconds. The reaction was terminated by adding a solution of ferric chloride (STREM CHEMICALS) and citric acid (Wako Pure Chemical Industries) salt to a final concentration of 5 mg/mL and 250 mM, respectively. The formed PGE2 was quantified using the HTRF kit (Cisbio International). Solutions without the test compound were used as positive controls, and solutions without the test compound and microsomal specimens were used as negative controls. 100% activity was defined as production of PGE2 in the positive control minus that in the negative control. The percentage inhibition of production of PGE2 at final concentrations of 10 nM and 100 nM of the test compound was then calculated, or IC50 values were determined using standard methods.
human mPGES-1, sequence (O14684 whole entry): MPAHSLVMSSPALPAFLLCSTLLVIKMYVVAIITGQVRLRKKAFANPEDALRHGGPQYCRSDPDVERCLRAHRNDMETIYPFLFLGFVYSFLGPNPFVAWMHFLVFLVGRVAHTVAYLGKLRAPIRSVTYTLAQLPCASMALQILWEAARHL

Where a name gives a salt, the structure may show the parent alone.

Turning to `COc1cccc(-n2ncc3c(NC(=O)c4cc(CNC(=O)C(C)(C)C)ccc4Cl)cccc32)c1` [Example 49, 2-Chloro-5-{[(2,2-dimethylpropanoyl)amino]methyl}-N-[1-(3-methoxyphenyl)-1H-indazol-4-yl]benzamide], the IC50 in test [1] is 0.9 nM; in test [2], 9.9 nM.
In the case of `CC(C)(C)C(=O)NCc1ccc(Cl)c(C(=O)Nc2cccc3c2cnn3-c2ccc(C(F)(F)F)cc2)c1` [Example 50, 2-Chloro-5-{[(2,2-dimethylpropanoyl)amino]methyl}-N-{1-[4-(trifluoromethyl)phenyl]-1H-indazol-4-yl}benzamide], the values for the IC50 in test [1] and in test [2] were 3.5 nM and 14.7 nM, respectively.
For `CC(C)(C)C(=O)NCc1ccc(Cl)c(C(=O)Nc2cccc3c2cnn3-c2ccc(OC(F)(F)F)cc2)c1` [Example 51, 2-Chloro-5-{[(2,2-dimethylpropanoyl)amino]methyl}-N-{1-[4-(trifluoromethoxy)phenyl]-1H-indazol-4-yl}benzamide] the same measures were 112 nM and 5 nM.
As to `Cc1ncc(-n2ncc3c(NC(=O)c4cc(CNC(=O)C(C)(C)C)ccc4Cl)cccc32)cn1` [Example 52, 2-Chloro-5-{[(2,2-dimethylpropanoyl)amino]methyl}-N-[1-(2-methylpyrimidin-5-yl)-1H-indazol-4-yl]benzamide], the results for the IC50 in test [1] and in test [2] were 20.9 nM and 3.6 nM, respectively.
Take `Cc1ccc(-n2ncc3c(NC(=O)c4cc(CNC(=O)C(C)(C)C)ccc4Cl)cccc32)cc1Cl` [Example 53, 2-Chloro-N-[1-(3-chloro-4-methylphenyl)-1H-indazol-4-yl]-5-([(2,2-dimethylpropanoyl)amino]methyl)benzamide]: the IC50 is 1.8 nM in test [1] and 2.6 nM in test [2].
Consider `Cc1ccc(-n2ncc3c(NC(=O)c4cc(CNC(=O)C(C)(C)C)ccc4Cl)cccc32)cn1` [Example 54, 2-Chloro-5-{[(2,2-dimethylpropanoyl)amino]methyl}-N-[1-(6-methylpyridin-3-yl)-1H-indazol-4-yl]benzamide hydrochloride], for which the IC50 in test [1] was 6.2 nM; in test [2], 9.5 nM.
On the same counts, the results for `CC(C)(C)C(=O)NCc1ccc(Cl)c(C(=O)Nc2cccc3c2cnn3-c2ccc(C#N)cc2)c1` [Example 55, 2-Chloro-N-[1-(4-cyanophenyl)-1H-indazol-4-yl]-5-([(2,2-dimethylpropanoyl)amino]methyl)benzamide] are 1.8 nM and 1.3 nM.
`Cc1ncccc1-n1ncc2c(NC(=O)c3cc(CNC(=O)C(C)(C)C)ccc3Cl)cccc21` [Example 56, 2-Chloro-5-{[(2,2-dimethylpropanoyl)amino]methyl}-N-[1-(2-methylpyridin-3-yl)-1H-indazol-4-yl]benzamide hydrochloride]: the IC50 in test [1] amounted to 183 nM; in test [2] it was 23.6 nM.
As for `CC(C)(C)C(=O)NCc1ccc(Cl)c(C(=O)Nc2cccc3c2cnn3-c2cncc(C(F)(F)F)c2)c1` [Example 57, 2-Chloro-5-{[(2,2-dimethylpropanoyl)amino]methyl}-N-{1-[5-(trifluoromethyl)pyridin-3-yl]-1H-indazol-4-yl}benzamide], the IC50 is 5.7 nM in test [1] and 19.8 nM in test [2].
Consider `Cc1cc(-n2ncc3c(NC(=O)c4cc(CNC(=O)C(C)(C)C)ccc4Cl)cccc32)ccn1` [Example 58, 2-Chloro-5-{[(2,2-dimethylpropanoyl)amino]methyl}-N-[1-(2-methylpyridin-4-yl)-1H-indazol-4-yl]benzamide hydrochloride], for which the IC50 in test [1] and in test [2] was 5.9 nM throughout.
For `Cc1cncc(-n2ncc3c(NC(=O)c4cc(CNC(=O)C(C)(C)C)ccc4Cl)cccc32)c1` [Example 60, 2-Chloro-5-{[(2,2-dimethylpropanoyl)amino]methyl}-N-[1-(5-methylpyridin-3-yl)-1H-indazol-4-yl]benzamide hydrochloride], the IC50 in test [1] amounted to 10.4 nM; in test [2], 6.7 nM.
For the compound `COc1cncc(-n2ncc3c(NC(=O)c4cc(CNC(=O)C(C)(C)C)ccc4Cl)cccc32)c1` [Example 61, 2-Chloro-5-{[(2,2-dimethylpropanoyl)amino]methyl}-N-[1-(5-methoxypyridin-3-yl)-1H-indazol-4-yl]benzamide hydrochloride], the IC50 in test [1] is 2.9 nM; in test [2], 3.5 nM.
`COc1ccc(-n2ncc3c(NC(=O)c4cc(CNC(=O)C(C)(C)C)ccc4Cl)cccc32)cc1C(F)(F)F` [Example 62, 2-Chloro-5-{[(2,2-dimethylpropanoyl)amino]methyl}-N-{1-[4-methoxy-3-(trifluoromethyl)phenyl]-1H-indazol-4-yl}benzamide]: the results for the IC50 in test [1] and in test [2] were 3.6 nM and 2.4 nM, respectively.
On the same counts, the results for `COc1ccc(-n2ncc3c(NC(=O)c4cc(CNC(=O)C(C)(C)C)ccc4Cl)cccc32)cn1` [Example 63, 2-Chloro-5-{[(2,2-dimethylpropanoyl)amino]methyl}-N-[1-(6-methoxypyridin-3-yl)-1H-indazol-4-yl]benzamide] are 13.7 nM and 1 nM.
On to `CC(C)(C)C(=O)NCc1ccc(Cl)c(C(=O)Nc2cccc3c2cnn3-c2cncc(C3CC3)c2)c1` [Example 64, 2-Chloro-N-[1-(5-cyclopropylpyridin-3-yl)-1H-indazol-4-yl]-5-{[(2,2-dimethylpropanoyl)amino]methyl}benzamide hydrochloride], for which the IC50 in test [1] amounted to 1.9 nM; in test [2], 1.4 nM.
For `CCOc1ccc(-n2ncc3c(NC(=O)c4cc(CNC(=O)C(C)(C)C)ccc4Cl)cccc32)cc1` [Example 65, 2-Chloro-5-{[(2,2-dimethylpropanoyl)amino]methyl}-N-[1-(4-ethoxyphenyl)-1H-indazol-4-yl]benzamide] the same measures were 3.6 nM and 2.2 nM.
As to `CCOc1cccc(-n2ncc3c(NC(=O)c4cc(CNC(=O)C(C)(C)C)ccc4Cl)cccc32)c1` [Example 66, 2-Chloro-5-{[(2,2-dimethylpropanoyl)amino]methyl}-N-[1-(3-ethoxyphenyl)-1H-indazol-4-yl]benzamide], the IC50 was 4 nM in test [1] and 0.2 nM in test [2].
For `COc1ccc(-n2ncc3c(NC(=O)c4cc(CNC(=O)C(C)(C)C)ccc4Cl)cccc32)cc1OC` [Example 67, 2-Chloro-N-[1-(3,4-dimethoxyphenyl)-1H-indazol-4-yl]-5-{[(2,2-dimethylpropanoyl)amino]methyl}benzamide], the results for the IC50 in test [1] and in test [2] were 5.1 nM and 3.7 nM, respectively.
Turning to `CC(C)Oc1cccc(-n2ncc3c(NC(=O)c4cc(CNC(=O)C(C)(C)C)ccc4Cl)cccc32)c1` [Example 68, 2-Chloro-5-{[(2,2-dimethylpropanoyl)amino]methyl}-N-{1-[3-(propan-2-yloxy)phenyl]-1H-indazol-4-yl}benzamide], the IC50 in test [1] was found to be 2 nM; in test [2] it was 6.7 nM.
In the case of `CC(C)(C)C(=O)NCc1ccc(Cl)c(C(=O)Nc2cccc3c2cnn3-c2cccc(OC(F)(F)F)c2)c1` [Example 71, 2-Chloro-5-{[(2,2-dimethylpropanoyl)amino]methyl}-N-{1-[3-(trifluoromethoxy)phenyl]-1H-indazol-4-yl}benzamide], the IC50 in test [1] was 0.6 nM; in test [2] it was 0.1 nM.
Regarding `CC(C)(C)C(=O)NCc1ccc(Cl)c(C(=O)Nc2cccc3c2cnn3-c2ccc(C#N)nc2)c1` [Example 72, 2-Chloro-N-[1-(6-cyanopyridin-3-yl)-1H-indazol-4-yl]-5-([(2,2-dimethylpropanoyl)amino]methyl)benzamide], the IC50 in test [1] stood at 11.5 nM; in test [2], 6.2 nM.
Consider `COc1cc(-n2ncc3c(NC(=O)c4cc(CNC(=O)C(C)(C)C)ccc4Cl)cccc32)ccn1` [Example 73, 2-Chloro-5-{[(2,2-dimethylpropanoyl)amino]methyl}-N-[1-(2-methoxypyridin-4-yl)-1H-indazol-4-yl]benzamide hydrochloride], for which the IC50 in test [1] was determined as 3.3 nM; in test [2] it was 1.2 nM.
As for `COCc1ccc(-n2ncc3c(NC(=O)c4cc(CNC(=O)C(C)(C)C)ccc4Cl)cccc32)cn1` [Example 74, 2-Chloro-5-{[(2,2-dimethylpropanoyl)amino]methyl}-N-{1-[6-(methoxymethyl)pyridin-3-yl]-1H-indazol-4-yl}benzamide hydrochloride], the IC50 is 15.6 nM in test [1] and 1.3 nM in test [2].
